Results reported in ChEMBL document CHEMBL3885861, “Open TG-GATES”.

Species on record: Rattus norvegicus
Assay: Open TG-GATES - Regimen: Daily Repeat
Type: toxicity, organism-based, Sprague-Dawley
Parameters: regimen Daily Repeat, gender Male, age 6 weeks
Conditions: in vivo, po, route gavage; for GLC / IP / K / LDH / Na / PL / RALB / TBIL / TC / TG / TP / gamma-GTP / A/G / ALP / ALT / AST / BUN / CRE / Ca / Cl / DBIL: tissue Plasma; for APTT / Bas / Eos / Fbg / Hb / Ht / Lym / MCH / MCHC / MCV / Mono / Neu / PT / Plat / RBC / Ret / WBC: tissue Blood; for KIDNEY_L / KIDNEY_R / KIDNEY_TOTAL: tissue Kidney; for LIVER: tissue Liver
[1] = 10 mg/kg, […], dose level Middle, time 14 day
[2] = 10 mg/kg, […], dose level Middle, time 28 day
[3] = 30 mg/kg, 72 h, dose level High, time 3 day
[4] = 30 mg/kg, […], dose level High, time 7 day
[5] = 30 mg/kg, […], dose level High, time 14 day

CCN(CC)N=O [N-NITROSODIETHYLAMINE]
GLC [1]: 180 mg/dL | IP [1]: 7 mg/dL | K [1]: 3.8 meq/L | LDH [1]: 259 IU/L | Na [1]: 140.2 meq/L | PL [1]: 140.2 mg/dL | RALB [1]: 3.4 g/dL | TBIL [1]: 0.2 mg/dL | TC [1]: 70.4 mg/dL | TG [1]: 67.6 mg/dL | TP [1]: 5.5 g/dL | gamma-GTP [1]: 2.2 IU/L | A/G [2]: 1.7 | ALP [2]: 1261.4 IU/L | ALT [2]: 69 IU/L | AST [2]: 110.4 IU/L | BUN [2]: 15 mg/dL | CRE [2]: 0.5 mg/dL | Ca [2]: 9.9 mg/dL | Cl [2]: 103.6 meq/L | DBIL [2]: 0.1 mg/dL | GLC [2]: 165.8 mg/dL | IP [2]: 5.9 mg/dL | K [2]: 3.5 meq/L | LDH [2]: 242 IU/L | Na [2]: 140.6 meq/L | PL [2]: 146.2 mg/dL | RALB [2]: 3.3 g/dL | TBIL [2]: 0.2 mg/dL | TC [2]: 70.8 mg/dL | TG [2]: 79.2 mg/dL | TP [2]: 5.3 g/dL | gamma-GTP [2]: 3.2 IU/L | TERMINAL_BW [3]: 209.6 g | APTT [3]: 17.1 s | Bas [3]: 0.6% | Eos [3]: 1.4% | Fbg [3]: 211.6 mg/dL | Hb [3]: 15.6 g/dL | Ht [3]: 44.7% | Lym [3]: 81.2% | MCH [3]: 21.3 pg | MCHC [3]: 34.8% | MCV [3]: 61.1 fL | Mono [3]: 3.4% | Neu [3]: 12.6% | PT [3]: 14.2 s | Plat [3]: 134.9 x10_4/uL | RBC [3]: 732.4 x10_4/ul | Ret [3]: 4% | WBC [3]: 84.6 x10_2/uL | KIDNEY_L [3]: 1 g | KIDNEY_R [3]: 0.9 g | KIDNEY_TOTAL [3]: 1.9 g | LIVER [3]: 7.6 g | A/G [3]: 1.8 | ALP [3]: 979.2 IU/L | ALT [3]: 64.4 IU/L | AST [3]: 196.8 IU/L | BUN [3]: 12.4 mg/dL | CRE [3]: 0.4 mg/dL | Ca [3]: 10.4 mg/dL | Cl [3]: 103.2 meq/L | DBIL [3]: 0.1 mg/dL | GLC [3]: 174.6 mg/dL | IP [3]: 7.5 mg/dL | K [3]: 4 meq/L | LDH [3]: 316.8 IU/L | Na [3]: 140.4 meq/L | PL [3]: 135.8 mg/dL | RALB [3]: 3.4 g/dL | TBIL [3]: 0.2 mg/dL | TC [3]: 80.6 mg/dL | TG [3]: 59.4 mg/dL | TP [3]: 5.2 g/dL | gamma-GTP [3]: 1.6 IU/L | TERMINAL_BW [4]: 200.4 g | TERMINAL_BW [5]: 195.1 g | APTT [4]: 21.4 s | Bas [4]: 1% | Eos [4]: 1% | Fbg [4]: 153.6 mg/dL | Hb [4]: 17.4 g/dL | Ht [4]: 49% | Lym [4]: 76% | MCH [4]: 21.1 pg | MCHC [4]: 35.6% | MCV [4]: 59.2 fL | Mono [4]: 4.4% | Neu [4]: 17.4% | PT [4]: 19.5 s | Plat [4]: 126.6 x10_4/uL | RBC [4]: 827 x10_4/ul | Ret [4]: 1.6% | WBC [4]: 117.4 x10_2/uL | APTT [5]: 87.2 s | Bas [5]: 1% | Eos [5]: 0% | Fbg [5]: 66 mg/dL | Hb [5]: 16.7 g/dL | Ht [5]: 48.8% | Lym [5]: 26% | MCH [5]: 20.7 pg | MCHC [5]: 34.2% | MCV [5]: 60.5 fL | Mono [5]: 7% | Neu [5]: 65% | PT [5]: 63.4 s | Plat [5]: 112.1 x10_4/uL | RBC [5]: 807 x10_4/ul | Ret [5]: 3.6% | WBC [5]: 108.1 x10_2/uL | KIDNEY_L [4]: 0.9 g | KIDNEY_R [4]: 0.9 g | KIDNEY_TOTAL [4]: 1.8 g | KIDNEY_L [5]: 1.2 g | KIDNEY_R [5]: 1.2 g | KIDNEY_TOTAL [5]: 2.4 g | LIVER [4]: 4.6 g | LIVER [5]: 2.7 g | A/G [4]: 2 | ALP [4]: 1514 IU/L | ALT [4]: 160.2 IU/L | AST [4]: 315.6 IU/L | BUN [4]: 12.6 mg/dL | CRE [4]: 0.4 mg/dL | Ca [4]: 9.6 mg/dL | Cl [4]: 104.2 meq/L | DBIL [4]: 0.7 mg/dL | GLC [4]: 140.4 mg/dL | IP [4]: 7 mg/dL | K [4]: 3.9 meq/L | LDH [4]: 465.4 IU/L | Na [4]: 138.6 meq/L | PL [4]: 171 mg/dL | RALB [4]: 2.9 g/dL | TBIL [4]: 0.9 mg/dL | TC [4]: 109 mg/dL | TG [4]: 27.4 mg/dL | TP [4]: 4.4 g/dL | gamma-GTP [4]: 9.2 IU/L | A/G [5]: 2.8 | ALP [5]: 1357 IU/L | ALT [5]: 206 IU/L | AST [5]: 748 IU/L | BUN [5]: 47 mg/dL | CRE [5]: 0.7 mg/dL | Ca [5]: 9.4 mg/dL | Cl [5]: 90 meq/L | DBIL [5]: 4.2 mg/dL | GLC [5]: 61 mg/dL | IP [5]: 9.2 mg/dL | K [5]: 4.5 meq/L | LDH [5]: 983 IU/L | Na [5]: 130 meq/L | PL [5]: 245 mg/dL | RALB [5]: 2.2 g/dL | TBIL [5]: 5.1 mg/dL | TC [5]: 231 mg/dL | TG [5]: 88 mg/dL | TP [5]: 3 g/dL | gamma-GTP [5]: 16 IU/L
